Assays:
[1] = target: T1, MAGL (Homo sapiens, UniProt Q99685); test: In vitro competitive activity-based protein profiling, MAGL, human; conditions: for inhibition at 1 µM: read-out: MAGL % inh. 1 μM (human)
T1 sequence (Q99685 1-303): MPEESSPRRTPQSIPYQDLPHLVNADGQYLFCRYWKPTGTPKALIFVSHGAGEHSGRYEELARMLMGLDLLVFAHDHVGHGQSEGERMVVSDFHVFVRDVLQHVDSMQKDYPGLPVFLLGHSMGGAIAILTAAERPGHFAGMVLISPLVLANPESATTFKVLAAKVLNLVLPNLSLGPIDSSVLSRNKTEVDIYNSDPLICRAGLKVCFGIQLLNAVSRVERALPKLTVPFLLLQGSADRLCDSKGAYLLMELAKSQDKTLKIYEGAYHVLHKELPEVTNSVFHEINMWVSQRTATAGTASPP

[2] = target: T2, MAGL (Mus musculus, UniProt O35678); test: Mouse brain proteomes from inhibitor treated mice (oral gavage, sacrificed 4 h after administration); type: in vivo; set-up: mouse brain membrane fraction for mouse assays; from tissue; host or cells: mouse brain (membrane fraction in vitro; brain proteomes of treated C57Bl/6J mice in vivo); conditions: 5 mg/kg oral gavage, brain proteome 4 h after administration, read-out: MAGL % inh. 5 mg/kg (mouse)
T2 sequence (O35678 1-303): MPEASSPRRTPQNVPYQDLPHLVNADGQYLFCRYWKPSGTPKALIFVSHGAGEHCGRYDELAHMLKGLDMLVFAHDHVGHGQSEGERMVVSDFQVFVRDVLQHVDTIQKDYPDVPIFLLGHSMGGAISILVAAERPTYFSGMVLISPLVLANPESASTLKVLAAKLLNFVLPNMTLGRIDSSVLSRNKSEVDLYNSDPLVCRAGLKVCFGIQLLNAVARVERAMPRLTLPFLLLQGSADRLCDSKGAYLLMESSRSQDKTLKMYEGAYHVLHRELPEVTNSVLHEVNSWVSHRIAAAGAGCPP

[3] = target: T3, FAAH (Mus musculus, UniProt O08914); test: Mouse brain proteomes from inhibitor treated mice (oral gavage, sacrificed 4 h after administration), FAAH; type: in vivo; set-up: mouse brain membrane fraction for mouse assays; from tissue; host or cells: mouse brain (membrane fraction in vitro; brain proteomes of treated C57Bl/6J mice in vivo); conditions: 5 mg/kg oral gavage, brain proteome 4 h after administration, read-out: FAAH % inh. 5 mg/kg (mouse)
T3 sequence (O08914 1-579): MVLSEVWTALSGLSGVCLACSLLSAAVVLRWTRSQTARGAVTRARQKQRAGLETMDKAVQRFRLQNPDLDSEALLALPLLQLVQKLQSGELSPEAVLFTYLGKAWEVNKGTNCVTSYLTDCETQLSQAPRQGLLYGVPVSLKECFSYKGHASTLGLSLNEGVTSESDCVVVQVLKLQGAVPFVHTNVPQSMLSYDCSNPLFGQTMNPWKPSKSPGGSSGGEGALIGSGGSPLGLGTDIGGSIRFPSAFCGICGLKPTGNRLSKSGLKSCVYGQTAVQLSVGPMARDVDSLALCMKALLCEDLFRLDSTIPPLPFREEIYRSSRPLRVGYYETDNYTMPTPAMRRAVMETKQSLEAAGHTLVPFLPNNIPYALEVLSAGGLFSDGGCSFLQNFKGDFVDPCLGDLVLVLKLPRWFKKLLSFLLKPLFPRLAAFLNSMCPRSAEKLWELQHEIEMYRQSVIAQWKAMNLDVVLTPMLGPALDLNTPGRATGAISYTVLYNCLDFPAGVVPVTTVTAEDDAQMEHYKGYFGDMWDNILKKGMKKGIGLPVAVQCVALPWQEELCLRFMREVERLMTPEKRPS

[4] = target: T4, FAAH (Homo sapiens, UniProt O00519); test: In vitro competitive activity-based protein profiling, FAAH, human; conditions: for inhibition at 1 µM: read-out: FAAH % inh. 1 μM (human)
T4 sequence (O00519 1-579): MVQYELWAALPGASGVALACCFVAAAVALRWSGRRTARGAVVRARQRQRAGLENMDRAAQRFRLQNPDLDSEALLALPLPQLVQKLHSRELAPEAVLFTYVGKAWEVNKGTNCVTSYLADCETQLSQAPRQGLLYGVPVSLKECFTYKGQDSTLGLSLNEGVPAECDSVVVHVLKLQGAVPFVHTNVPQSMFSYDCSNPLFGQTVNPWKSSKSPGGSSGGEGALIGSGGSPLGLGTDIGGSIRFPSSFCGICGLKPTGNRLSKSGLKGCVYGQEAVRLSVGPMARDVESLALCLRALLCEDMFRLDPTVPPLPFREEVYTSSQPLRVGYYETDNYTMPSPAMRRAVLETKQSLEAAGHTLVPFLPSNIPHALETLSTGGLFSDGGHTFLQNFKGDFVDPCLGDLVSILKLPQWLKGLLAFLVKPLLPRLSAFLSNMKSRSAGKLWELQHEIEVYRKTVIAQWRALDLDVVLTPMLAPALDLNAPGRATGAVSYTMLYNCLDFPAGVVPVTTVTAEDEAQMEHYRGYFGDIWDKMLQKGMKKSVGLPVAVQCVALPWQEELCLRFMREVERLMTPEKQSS

[5] = target: T3, FAAH; test: In vitro competitive activity-based protein profiling, FAAH, mouse; conditions: read-out: FAAH % inh. 1 μM (mouse)
[6] = target: T2, MAGL; test: In vitro competitive activity-based protein profiling, MAGL, mouse; conditions: read-out: MAGL % inh. 1 μM (mouse)

Row | inhibition at 1 µM [1] | inhibition at 5 mg/kg [2] | inhibition at 5 mg/kg [3] | inhibition at 1 µM [4] | inhibition at 1 µM [5] | inhibition at 1 µM [6] | IC50 [1] | IC50 [4] | SMILES
1 | > 75% | 0 to 25% | 0 to 25% | 0 to 25% | 0 to 25% | > 75% | – | – | O=C(O)c1ccn(C(=O)N2CCN(Cc3ccc(Cl)cc3N3CC4COCC4C3)CC2)n1 (centres unmarked) [Example 111, 1-(4-(4-chloro-2-(tetrahydro-1H-furo[3,4-c]pyrrol-5(3H)-yl)benzyl)piperazine-1-carbonyl)-1H-pyrazole-3-carboxylic acid]
2 | > 75% | 0 to 25% | 0 to 25% | 0 to 25% | 0 to 25% | > 75% | – | – | NC(=O)C1CCN(c2cc(C(F)(F)F)ccc2CN2CCN(C(=O)n3ccc(C(=O)O)n3)CC2)CC1 [Example 113, 1-(4-(2-(4-carbamoylpiperidin-1-yl)-4-(trifluoromethyl)benzyl)piperazine-1-carbonyl)-1H-pyrazole-3-carboxylic acid]
3 | > 75% | 0 to 25% | 0 to 25% | 0 to 25% | 0 to 25% | > 75% | – | – | CC1CCC(C)N1c1cc(C(F)(F)F)ccc1CN1CCN(C(=O)n2ccc(C(=O)O)n2)CC1 (centres unmarked) [Example 114, 1-(4-(2-(2,5-dimethylpyrrolidin-1-yl)-4-(trifluoromethyl)benzyl)piperazine-1-carbonyl)-1H-pyrazole-3-carboxylic acid]
4 | > 75% | 0 to 25% | 0 to 25% | > 75% | 0 to 25% | > 75% | 100 to 1000 nM | 100 to 1000 nM | O=C(O)c1ccn(C(=O)N2CC3CN(Cc4cccc(Oc5ccc(Cl)cc5)c4)CC3C2)n1 (centres unmarked) [Example 116, 1-(5-(3-(4-chlorophenoxy)benzyl)octahydro-pyrrolo[3,4-c]pyrrole-2-carbonyl)-1H-pyrazole-3-carboxylic acid]
5 | > 75% | 0 to 25% | 0 to 25% | 0 to 25% | 0 to 25% | > 75% | – | – | CC(=O)NC1CCN(c2cc(C(F)(F)F)ccc2CN2CCN(C(=O)n3ccc(C(=O)O)n3)CC2)CC1 [Example 119, 1-(4-(2-(4-acetamidopiperidin-1-yl)-4-(trifluoromethyl)benzyl)piperazine-1-carbonyl)-1H-pyrazole-3-carboxylic acid]
6 | > 75% | 0 to 25% | 0 to 25% | 0 to 25% | 0 to 25% | > 75% | – | – | O=C(O)c1ccn(C(=O)N2CCN(Cc3ccc(C(F)(F)F)cc3N3CCC(O)CC3)CC2)n1 [Example 120, 1-(4-(2-(4-hydroxypiperidin-1-yl)-4-(trifluoromethyl)benzyl)piperazine-1-carbonyl)-1H-pyrazole-3-carboxylic acid]
7 | > 75% | 0 to 25% | 0 to 25% | 0 to 25% | 0 to 25% | > 75% | – | – | O=C(O)c1ccn(C(=O)N2CCC(Oc3ccc(Cl)c(N4CCCC4)c3)CC2)n1 [Example 121, 1-(4-(4-chloro-3-(pyrrolidin-1-yl)phenoxy)piperidine-1-carbonyl)-1H-pyrazole-3-carboxylic acid]
8 | > 75% | 0 to 25% | 0 to 25% | 50 to 75% | > 75% | > 75% | – | – | O=C(O)c1ccn(C(=O)N2CC3CN(Cc4ccc(N5CCCC5)cc4C(F)(F)F)CC3C2)n1 (centres unmarked) [Example 123, 1-(5-(4-(pyrrolidin-1-yl)-2-(trifluoromethyl)benzyl)octahydro-pyrrolo[3,4-c]pyrrole-2-carbonyl)-1H-pyrazole-3-carboxylic acid]
9 | > 75% | 0 to 25% | 25 to 50% | 50 to 75% | > 75% | > 75% | – | 100 to 1000 nM | O=C(O)c1ccn(C(=O)N2CC3CN(Cc4cc(Cl)cc(C(F)(F)F)c4)CC3C2)n1 (centres unmarked) [Example 124, 1-(5-(3-chloro-5-(trifluoromethyl)benzyl)octahydro-pyrrolo[3,4-c]pyrrole-2-carbonyl)-1H-pyrazole-3-carboxylic acid]
10 | > 75% | 0 to 25% | 0 to 25% | 50 to 75% | 50 to 75% | > 75% | – | 100 to 1000 nM | Cc1cn(C(=O)N2CCC3(CCN(Cc4cc(Cl)ccc4C(F)(F)F)C3)CC2)nc1C(=O)O [Example 130, 1-(2-(5-chloro-2-(trifluoromethyl)benzyl)-2,8-diazaspiro[4.5]decane-8-carbonyl)-4-methyl-1H-pyrazole-3-carboxylic acid]
11 | > 75% | 0 to 25% | 0 to 25% | > 75% | > 75% | > 75% | – | – | O=C(O)c1nn(C(=O)N2CCN(Cc3cccc(Oc4ccc(Cl)cc4)c3)CC2)cc1Cl [Example 132, 4-chloro-1-(4-(3-(4-chlorophenoxy)benzyl)piperazine-1-carbonyl)-1H-pyrazole-3-carboxylic acid]
12 | > 75% | 0 to 25% | 0 to 25% | > 75% | > 75% | > 75% | – | 100 to 1000 nM | O=C(O)c1nn(C(=O)N2CCC3(CCN(Cc4cc(Cl)ccc4C(F)(F)F)C3)CC2)cc1Cl [Example 133, 4-chloro-1-(2-(5-chloro-2-(trifluoromethyl)benzyl)-2,8-diazaspiro[4.5]decane-8-carbonyl)-1H-pyrazole-3-carboxylic acid]

Row | SMILES | inhibition at 1 µM [1] | inhibition at 5 mg/kg [2] | inhibition at 5 mg/kg [3] | inhibition at 1 µM [4] | inhibition at 1 µM [5] | inhibition at 1 µM [6] | IC50 [1] | IC50 [4]
13 | O=C(O)c1ccn(C(=O)N2CCN(Cc3ccc(C(F)(F)F)cc3N3C4CCC3COC4)CC2)n1 [Example 118, 1-(4-(2-(3-oxa-8-azabicyclo[3.2.1]octan-8-yl)-4-(trifluoromethyl)benzyl)piperazine-1-carbonyl)-1H-pyrazole-3-carboxylic acid] | > 75% | 0 to 25% | 0 to 25% | 0 to 25% | 0 to 25% | > 75% | – | –
